Consider seven compounds from US20080187605A1, “PREVENTING PATHOLOGICAL NERVE CELL SUICIDE (NEUROAPOPTOSIS) IN IMMATURE NERVOUS SYSTEMS” (priority 2007, published 2008).

Each structure is given as a SMILES string. “Also recorded” adds a separate entry of the source. Read-outs that look alike come from different tables or passages of the source.

In series [1] the test system is infant mouse brain. The note with it: 6 hrs; for number of AC3-positive profiles, ethanol by itself: ethanol 250 mg/g, mean across 5 brain regions, vs saline.
Procedure: The mean number of AC3-positive profiles per mm^3 across all 5 brain regions was calculated for each treatment condition.
Series [2] has as its system ERK-1. The settings on record: infant mice; within less than 30 minutes after ethanol.
In series [3] the test system is ERK-2. The settings on record: infant mice; within less than 30 minutes after ethanol.
Series [4] concerns AKT. The note with it: infant mice; within 30 minutes after ethanol.
Series [5] deals with caudate/putamen of infant mouse brain. The series can be described thus: Xenon and isoflurane neuroapoptosis, activated caspase-3 stereology. How it is done:
Seven-day-old C57BL/6 mice were exposed to one of four conditions: air (control); 0.75% isoflurane; 70% xenon or 0.75% isoflurane+70% xenon (n≧9 per group) for 4 hours. All pups were euthanized 2 hours later for histopathological evaluation of the brains, using activated caspase-3 immunohistochemical staining to detect apoptotic neurons. Quantitative assessment of the number of apoptotic neurons in caudate/putamen under each condition was performed by unbiased stereology.
The results are depicted graphically in FIG. 7. In this graph, the number of apoptotic neurons under the control condition is given as 100% and the values for the experimental conditions are given as a percentage of the control.

The subject of series [6] is infant mouse brain. The settings on record: for number of AC3-positive profiles, ketamine by itself: five day old mice, ketamine 40 mg/kg, caudate nucleus and cerebral cortex, vs saline. How it is done: Five day old infant mice were treated either with saline or ketamine (40 mg/kg), or lithium carbonate (6 Meq/kg), or ketamine (40 mg/kg) plus lithium (6 Meq/kg). The animals were euthanized 6 hrs after initiation of drug exposure and the neuroapoptosis response in 2 different brain regions (caudate nucleus, cerebral cortex) was evaluated by stereological counting of neuronal profiles showing positive immunohistochemical staining for activated caspase 3 (AC3). The mean number of AC3-positive profiles per mm^3 across these 2 brain regions was calculated for each treatment condition.

Series [7] deals with infant mouse brain. The note with it: 6 hrs. The procedure:
The animals were euthanized 6 hrs after initiation of drug exposure and the neuroapoptosis response in 2 different brain regions (caudate nucleus, cerebral cortex) was evaluated by stereological counting of neuronal profiles showing positive immunohistochemical staining for activated caspase 3 (AC3). The mean number of AC3-positive profiles per mm^3 across these 2 brain regions was calculated for each treatment condition.

Series [8] concerns infant mouse brain (RSC/S and thalamus). The note with it: infant mice; single dose of lithium carbonate before brain injury or up to 4 hours after injury. An excerpt:
The method used herein for creating a consistent and reproducible head injury, in infant rats and mice, uses an electromagnetic impact device with a moving coil actuator, mounted on the arm of a stereotaxic holder. The actuator is positioned over the skull of an anesthetized animal, and has a blunt tip aimed at a specific location and angle on the skull. The actuator is driven electromagnetically, and impacts the skull at a computer-controlled speed, delivering a precise concussive force to a targeted zone on the skull.
As described in reports such as Bayly et al 2006, this type of concussive force can be applied to a single side of the head, creating nerve cell death by two different mechanisms. Brain cells directly beneath the skull at the site of impact die by an excitotoxic mechanism, which is confined to the local impact zone, and which leads to end-stage cell death within 4 hours. […]
In these tests, apoptotic neurons were detected by immunohistochemical staining of activated caspase-3 proteins. The quantitative counts were performed in RSC/S and thalamus tissues taken from both (i) the ipsilateral side of the brain, which was damaged, and (ii) the contralateral side of the brain, which was not damaged. […]

Series [9] concerns caudate nucleus of infant mouse brain. Briefly: Pilocarpine pretreatment against isoflurane- or midazolam-induced neuroapoptosis, activated caspase 3 IHC counts. The source says:
Agents that suppress neuronal activity, including GABAergic anesthetic agents such as midazolam and isoflurane, trigger neuroapoptosis in the infant mouse brain. If suppression of neuronal activity is a sufficient cause of the neuroapoptosis response, it is possible that agents that increase neuronal activity, such as the muscarinic cholinergic agonist, pilocarpine, might counteract this response. […] Control littermates received saline instead of pilocarpine, then were exposed to the same midazolam or isoflurane treatments. The animals were euthanized 6 hrs after initiation of anesthetic drug exposure and the neuroapoptosis response in the caudate nucleus was evaluated by stereological counting of neuronal profiles showing positive IHC staining for activated caspase 3.

Series [10] deals with 7 day old rat brain. The settings on record: xenon administered 4 hours ahead as preconditioning stimulus; cited from earlier work.

Take `CCO` [ethanol]: the “number of AC3-positive profiles, ethanol by itself” value in series [1] (five day old mice) is reported as “strong neuroapoptotic response”; in series [1] (five day old mice, listed as Ethanol) it was “marked increase”. Further, in [2], the “activated isoform of ERK-1” value is on record as “rapid decrease”. In addition, the “activated isoform of ERK-2” value in series [3] is “rapid decrease”. In addition, in series [4], the “activated isoform of AKT” value was “marked suppression”.
Regarding `FC(F)OC(Cl)C(F)(F)F` (stereo not shown) [isoflurane], the “neuroapoptosis in the caudate/putamen, drug alone compared to controls” value in series [5] (mouse, in vivo) is given as “significant increase”.
As for `CNC1(c2ccccc2Cl)CCCCC1=O` (stereo not shown) [ketamine], the “number of AC3-positive profiles, ketamine by itself” value in series [6] (6 hrs) was “severe and pathological neuroapoptosis”; in [6] (6 hrs, listed as Ketamine) it was “marked increase”.
As to `O=C([O-])[O-].[Li+].[Li+]` [lithium, lithium carbonate], in series [6] (lithium 6 Meq/kg), the “protection against ketamine-induced neuroapoptosis” value was “total protection; also recorded: potently prevent”. Also, the “apoptosis rate, lithium plus ketamine” value in series [6] (lithium 6 Meq/kg plus ketamine 40 mg/kg, 6 hrs) is “down to the same level as for lithium alone”. Moreover, the “number of AC3-positive profiles, lithium by itself (spontaneous neuroapoptosis)” value is on record as “marked reduction” in series [6] (lithium carbonate 6 Meq/kg, 6 hrs, ketamine experiment, vs saline controls); “marked reduction” in [7] (lithium carbonate 6 Meq/kg, propofol experiment, vs saline controls); “marked reduction” in series [1] (five day old mice, lithium carbonate 3 or 6 Meq/kg (equally strong), vs saline controls). The “apoptosis rate, lithium plus propofol” value in [7] (lithium 6 Meq/kg plus propofol 50 mg/kg) was “down to a level lower than the saline control level”. Further, in series [8], the “apoptotic neurodegeneration after traumatic brain injury” value is reported as “prevented almost all”. Besides, the “apoptosis rate, lithium plus ethanol” value in [1] (lithium 3 Meq/kg plus ethanol 250 mg/g) was “down to the same rate as in saline controls”; in [1] (lithium 6 Meq/kg (higher dose) plus ethanol 250 mg/g), “down to lower than the saline control level”.
For `Cc1ncc2n1-c1ccc(Cl)cc1C(c1ccccc1F)=NC2` [midazolam], the “apoptotic response in the caudate nucleus, anesthetic alone” value in [9] (infant mice, isoflurane 0.75% for 4 hrs or midazolam 9 mg/kg) is reported as “induced”.
Take `CC[C@@H]1C(=O)OC[C@@H]1Cc1cncn1C` [pilocarpine]: the “neuroapoptotic response to isoflurane in the caudate nucleus” value in series [9] (P5 mice, pilocarpine 20 mg/kg 2 hrs before isoflurane 0.75% for 4 hrs, euthanized 6 hrs after start of anesthetic, vs saline pretreatment) was “significantly reduced; also recorded: markedly reduces”. Further, the “neuroapoptotic response to midazolam in the caudate nucleus” value in [9] (P5 mice, pilocarpine 20 mg/kg 2 hrs before midazolam 9 mg/kg, euthanized 6 hrs after start of anesthetic, vs saline pretreatment) was “significantly reduced; also recorded: markedly reduces”. Also, the “degeneration of caudate neurons caused by a GABA anesthetic drug” value in series [9] (infant mice, pilocarpine given prior to GABA anesthetic drug) is “completely prevented, or greatly reduced”. The “protective effect depending on timing of pilocarpine” value in series [9] (pilocarpine given at the same time as the anesthetic (protective if 2 or more hrs prior)) was “not if given at the same time”.
For the compound `[Xe]` [xenon], the “apoptotic response of xenon together with isoflurane, relative to xenon alone” value in series [5] (0.75% isoflurane+70% xenon for 4 hours) was “only moderately higher”. The “neurotoxic reaction of xenon plus isoflurane, greater than control” value in series [5] (0.75% isoflurane+70% xenon for 4 hours, control (air) given as 100%) is reported as “about 350%”. In series [5] (70% xenon combined with 0.75% isoflurane), the “protection against isoflurane-induced neuroapoptosis” value is “markedly reduces; also recorded: strongly protects; also recorded: markedly protects”. For the same compound, the “degree of neuroapoptotic response, drug alone” value in [5] (70% xenon or 0.75% isoflurane alone for 4 hours) is recorded as “relatively weak neuroapoptogenic potential; also recorded: mild degree; also recorded: mild neuroapoptotic response”. The “neuroapoptosis in the caudate/putamen, drug alone compared to controls” value in series [5] (seven-day-old mice, 70% xenon or 0.75% isoflurane for 4 hours, euthanized 2 hours later, vs air) is listed as “significant increase”. In addition, in series [10], the “hypoxic and/or ischemic neurodegeneration” value is recorded as “protect”.
